In patent US9133484B2, “Transfection agent” (3-D MATRIX, LTD., priority 2008, dated 2015):

Key:
[1] = system: cultured human malignant glioma cells (U87MG, T98G, U251MG); assay: Introduction of Cy3-labeled siRNA into cells, fluorescence microscopy; type: cell-based; details: siRNA 50 nM plus peptide surfactant 20 μg/ml, 8 hours, all three types of cells
Protocol: The introduction of siRNA into cells by peptide surfactant was confirmed by microscopic observation of fluorescent-labeled siRNA.
<Materials> • *Peptide surfactant • Sequence: Ac-AAAAAAK-NH2 (SEQ ID NO: 17) (Celtek) • *siRNA • siRNA/MMP-2 (Santa Cruz) • *siRNA fluorescent labeling reagent • Label IT Cy-3 Labeling Kit (Mirus) • *Cells • Three types of cultured human malignant glioma cells (U87MG, T98G, U251MG, each acquired from ATCC)
siRNA/MMP-2 was labeled with Cy3 using the siRNA fluorescent labeling reagent in accordance with the Mirus protocol. 5000 of the cells were seeded into a chambered slide glass in accordance with the ATCC protocol and incubated for overnight. After removing the medium, siRNA to a final concentration of 50 nM and peptide surfactant to a final concentration of 20 μg/ml were added to 1 ml of medium followed by culturing for 8 hours. In a control group, only siRNA was cultured at a final concentration of 50 nM in 1 ml of medium.

[2] = system: cultured human malignant glioma cells (U87MG, T98G, U251MG); assay: Relationship between peptide surfactant concentration and siRNA introduction efficiency (RFU); type: cell-based
Protocol: The manner in which the efficiency of introduction of siRNA into cells is dependent on concentration of peptide surfactant was examined by microscopic observation of fluorescent-labeled siRNA.
<Materials> • *Peptide surfactant • Sequence: Ac-AAAAAAK-NH2 (SEQ ID NO: 17) (Celtek) • *Peptide surfactant concentrations: • 0, 0.5, 1.0, 5.0, 10.0, 20.0, 25.0 μg/ml • *siRNA • siRNA/MMP-2 (Santa Cruz) • *siRNA fluorescent labeling reagent • Label IT Cy-3 Labeling Kit (Mirus) • *Cells • Three types of cultured human malignant glioma cells (U87MG, T98G, U251MG, acquired from ATCC)
siRNA/MMP-2 was labeled with Cy3 using the siRNA fluorescent labeling reagent in accordance with the Minis standard protocol. The labeled siRNA was then mixed with the peptide surfactant. siRNA to a final concentration of 50 nM and peptide surfactant to final concentrations of 0, 0.5, 1, 5, 10, 20 and 25 μg/ml were administered to 1×10^5 cells seeded in a 24-well plate containing medium at 1 ml/well, followed by culturing for 8 hours. After washing the wells with PBS, the cells were recovered and transferred to a 96-well plate where they were measured for optical absorbance.

[3] = Cytotoxicity, MTT cell proliferation assay (Cell Titer 96 Aqueous One Solution); type: cell-based; details: human, U87MG malignant glioma cells
Protocol: Cytotoxicity was evaluated using cultured human cells for a peptide surfactant and two types of currently widely used cationic liposome-mediated gene transfer agents.
<Materials> • *Added Substances • 1. Peptide surfactant (sequence: Ac-AAAAAAK-NH2(SEQ ID NO: 17), Celtek) • 2. Lipofectamine 2000 (Invitrogen) • 3. siFECTOR (B-Bridge International, Inc.) • *Cells • Cultured human malignant glioma cells (U87MG, acquired from ATCC) • *MTT Assay Reagent (for cell proliferation assay) • Cell Titer 96 Aqueous One Solution Cell Proliferation Assay Kit (Promega)
The cells were seeded in a 96-well plate in accordance with the recommended ATCC protocol (cell density: 2×10^4/well) followed by incubating overnight. The medium was replaced with fresh medium and the substances were added (final concentrations: 0.0005, 0.001, 0.005, 0.01, 0.05, 0.1, 0.5, 1, 5, 10, 25, 50, 75, 100, 250 and 500 μg/ml). The cells were cultured for 24 hours. After culturing, Cell Titer 96 Aqueous One Solution was added (20 μl/well) followed by measuring optical absorbance at 495 nm with a plate reader 4 hours later to quantify the number of viable cells.

MMP-2 mRNA = assay: RNA interference effect by RT-PCR (MMP-2 target, beta-actin internal standard); type: cell-based, human; details: siRNA 50 nM/peptide surfactant 20 μg/ml, 8 hours, U87MG, T98G, U251MG (FIGS. 4 to 6)
Protocol: siRNA introduced into cells by peptide surfactant was confirmed to have RNA interference ability by RT-PCR.
<Materials> • *Peptide surfactant • Sequence: Ac-AAAAAAK-NH2 (SEQ ID NO: 17) (Celtek) • *Cells • Three types of cultured human malignant glioma cells (U87MG, T98G, U251MG, acquired from ATCC)
1×10^5 cells were seeded into a 24-well plate and cultured overnight in accordance with the ATCC standard protocol. After removing the medium, the following solutions were added to the final concentrations indicated below followed by culturing for 8 hours under the same culturing conditions as previously described. • (1) Blank control (medium only) • (2) Random oligo siRNA (Dharmacon)/peptide surfactant 20 μg/ml • (3) siRNA 50 nM • (4) Peptide surfactant 20 μg/ml • (5) siRNA 50 nM/peptide surfactant 20 μg/ml
The siRNA was reverse-transcribed to cDNA using the Taqman Gene Expression Cell-to-Ct Kit (Applied Biosystems). Quantitative analysis was carried out using the Applied Biosystems 7500 Real-Time PCR System using MMP-2 for the target and beta-actin for the internal standard by Gene Expression Assay (Applied Biosystems).

[4] = system: cultured human malignant glioma cells (U87MG, T98G, U251MG); assay: Time-based changes in amount of siRNA introduced into cells (RFU); type: cell-based; details: siRNA 50 nM, peptide surfactant 20 μg/ml (FIG. 2)
Protocol: Time-based changes in the amounts of siRNA introduced into cells by peptide surfactant were examined by microscopic observation of fluorescent-labeled siRNA.
<Materials> • *Peptide surfactant • Sequence: Ac-AAAAAAK-NH2 (SEQ ID NO: 17) (Celtek) • *Peptide surfactant concentrations: • 0, 0.5, 1.0, 5.0, 10.0, 20.0, 25.0 μg/ml • *siRNA • siRNA/MMP-2 (Santa Cruz) • siRNA fluorescent labeling reagent • Label IT Cy-3 Labeling Kit (Mirus) • *Cells • Three types of cultured human malignant glioma cells (U87MG, T98G, U251MG, acquired from ATCC)
siRNA/MMP-2 was labeled with Cy3 using the siRNA fluorescent labeling reagent in accordance with the Minis standard protocol. The labeled siRNA was then mixed with the peptide surfactant. siRNA to a final concentration of 50 nM and peptide surfactant to a final concentration of 20 μg/ml were administered to 1×10^5 cells seeded in a 24-well plate containing medium at 1 ml/well, followed by incubating for 0.5, 1, 2, 4, 8, 16 and 24 hours. After washing the wells with PBS, the cells were recovered and transferred to a 96-well plate where they were measured for optical absorbance.

Substance: Ac-AAAAAAK-NH2 [peptide surfactant, Ac-AAAAAAK-NH2]
- Uptake of Cy3-labeled siRNA [1]: confirmed
- RFU versus peptide surfactant concentration (introduction of siRNA into cells) ([2]; 0-25 μg/ml peptide surfactant, siRNA 50 nM, 8 hours, all three cell types (FIG. 3)): increases in RFU in proportion to increases in concentration
- concentration at which dose-dependent increases in RFU weakened ([2]; Y98G cells, siRNA 50 nM, 8 hours): ≥ 10 µg/mL
- introduction of siRNA into cells ([2]; peptide surfactant 20 μg/ml for 8 hours (with results of Example 3)): adequately and significantly result in introduction of siRNA into cells
- CC50 at 24 h [3]: 286 µg/mL
- Expression of MMP-2 mRNA (MMP-2 mRNA): significantly inhibited
- relative fluorescence units (RFU), siRNA incorporated into cells ([4]; culturing for 1 to 8 hours): increased nearly proportionately
- RFU levels ([4]; culturing for longer than 8 hours): essentially reached a plateau
